Assay results published in EP0282456A2, “Mylbemycin derivatives to combat parasites on animals” (CIBA-GEIGY AG, priority 1987, dated 1988).

Legend:
[1] = system: Li-Larven von Lucilia sericata; assay: Activity against L1 larvae of Lucilia sericata (mortality in larval culture medium); conditions: 100 ppm active substance in larval medium; about 30 L1 larvae; mortality after 4 days
Procedure: 1 ml einer wässrigen Suspension der zu prüfenden Aktivsubstanz werden so mit 3 ml eines speziellen Larvenzuchtmediums bei ca. 50° C vermischt, dass ein Homogenisat von wahlweise 250 ppm oder 100 ppm Wirkstoffgehalt entsteht. In jede Reagenzglas-Probe werden ca. 30 Lucilia-Larven (L1) eingesetzt. Nach 4 Taben wird die Mortalitätsrate bestimmt. Verbindungen der Formel I aus den Tabellen, wie z.B. die Verbindungen H4 und H5 erzielten mit 100 ppm eine Wirkung von 100%.

[2] = system: Haemonchus contortus und Trichostrongylus colubriformis; assay: Test on sheep infected with nematodes (worm egg count in faeces); type: in vivo, Schaf; conditions: single dose 0,2 mg/kg by stomach tube or intraruminal injection, compared with untreated infected controls
Procedure: Der Wirkstoff wird als Suspension formuliert mit einer Magensonde oder durch Injektion in den Pansen eines Schafes gegeben, das mit Haemonchus contortus und Trychostrongylus colubriformis künstlich infiziert worden ist. Pro Dosis werden 1 bis 3 Tiere verwendet. Jedes Schaf wird nur einmal mit einer einzigen Dosis behandelt, und zwar wahlweise mit 0,5 mg oder 0,2 mg/kg Körpergewicht. Die Evaluierung erfolgt durch Vergleich der Anzahl der vor und nach Behandlung im Kot der Schafe ausgeschiedenen Wurmeier. Gleichzeitig und gleichartig infizierte aber unbehandelte Schafe dienen als Kontrolle.

Dermanyssus gallinae = assay: Miticidal activity against Dermanyssus gallinae; conditions: 100 ppm test solution; about 200 mites; observed for three days
Procedure: 2 bis 3 ml einer Testlösung (100, 10, 1 und 0,1 ppm Aktivsubstanz) werden in einen nach oben offenen Glasbehälter gegeben und ca. 200 Milben in unterschiedlichen Entwicklungsstadien in diesen Behälter eingesetzt. Der Glasbehälter wird mit einem Wattebausch verschlossen und 10 Minuten gleichmässig, bis zur vollständigen Benetzung der Milben geschüttelt. Danach wird der Behälter umgekehrt hingestellt, bis die überschüssige Testlösung von der Watte aufgesogen ist. Der Behälter wird erneut gekehrt und die behandelten Milben zur Evaluierung der Wirksamkeit der Testsubstanzen drei Tage unter Laborbedingungen beobachtet, wobei die Mortalität als Massstab für Wirksamkeit herangezogen wird. Verbindungen aus den Tabellen, wie z.B. die Verbindungen H4 und H5 zeigen bei 100 ppm eine Wirkung von 1000/0.

| Substance | Wirkung (Mortalitätsrate) [1] [%] | Nematodenbefall (Reduktion der Wurmeier im Kot) [2] | Wirkung (Mortalität) (Dermanyssus gallinae) |
| --- | --- | --- | --- |
| 13-Vinyl-milbemycin A4 [H4] | 100 | keinen Nematodenbefall | 1000/0 |
| 13ß-Vinyl-milbemycin A4 [H5] | 100 | keinen Nematodenbefall | 1000/0 |
